Test results published in patent US5599825A, “Water-soluble methine compound and pharmaceutical composition for treatment of cancer comprising the same” (Fuji Photo Film Co., Ltd., priority 1994, dated 1997).

Experiments:
[1] = Solubility test 1: 5 mg in 5 ml ion-exchanged water, macroscopic (1 mg/ml); format: physicochemical; details: room temperature; for Solubility 1 mg/mL: 5 minutes shaking; for dissolution in the above-described solubility tests: summary in words
Protocol: (§1) The solubility tests were conducted by the following methods of tests 1 and 2:
5 mg of a methine compound is fed into a test tube, to which 5 ml of ion-exchanged water is added, the resultant mixture is shaken at room temperature for 5 minutes, and the solubility thereof is macroscopically confirmed (1 mg/ml solution).

[2] = Solubility test 2: 5 mg in 0.5 ml ion-exchanged water, macroscopic (10 mg/ml); format: physicochemical; details: room temperature, 5 minutes shaking
Protocol: as §1
5 mg of a methine compound is fed into a test tube, to which 0.5 ml of ion-exchanged water is added, the resultant mixture is shaken at room temperature for 5 minutes, and the solubility thereof is macroscopically confirmed (10 mg/ml solution).

[3] = Solubility in 5% glucose solution for injection, macroscopic (10 mg/ml); format: physicochemical; details: room temperature, 5 minutes shaking
Protocol: The solubility of each of the compounds of the present invention synthesized in Example 1 in 5% glucose solution for injection was examined.
5 mg of a methine compound was fed into a test tube, to which 0.5 ml of 5% glucose solution for injection was added, the resultant mixture was shaken at room temperature for 5 minutes, and the solubility thereof was macroscopically confirmed (10 mg/ml solution).

[4] = tested on: human colonic epithelial carcinoma LS174T; assay: Activity against human colonic epithelial carcinoma LS174T in nude mouse (tumor inhibition); format: in vivo, human (transplanted in BALB/C nu/nu mice); details: i.v.
Protocol: Activity of the present pharmaceutical compositions against human colonic epithelial carcinoma LS174T was determined by use of nude mouse as follows:
As the human colonic epithelial carcinoma cell lines LS174T, there was used the established line by trypsinizing piece of LS174T obtained from the operating theatre of the original adenocarcinoma of colon in such that the piece becomes suitable for cultivation. When this cultured cells LS174T are hypodermically injected to a nude mouse, the cells can be easily grown in the body of the nude mouse as a moderately to sufficiently differentiated human colonic epithelial carcinoma. The cells LS174T produce CEA in high level and can proliferate in hamster cheek pouches or immunodeprived mice, so that it has been proven that the cells LS174T have neoplastic properties.
BALB/C nu/nu mice (male, five weeks age) available from Charles River Japan Inc. were placed in an atmosphere having no pathogen. Tumors formed by the hypodermic injection of human colonic epithelial carcinoma cell lines LS174T into the mice were cut off under the aseptic condition, and the surrounding skin and connective tissue of the tumor tissues as well as the necrotic tissue located in the center of the tumor tissues were removed. The tumor tissues were Cut in the form of 3-5 mm square, and the resulting one tissue was charged into a needle for transplantation to hypodermically transplant it into the mouse. The resulting mice were randomly divided into control group (six mice) and treating group (six mice). The intravenous administration of the pharmaceutical composition into the treating group started next day. The amount and schedule of the administration were determined based on the experience, mainly the knowledge from the pretoxic-test data of LD 50 and LD 10.5% glucose solution or physiologic saline for injection was injected to the control group in the same amount as that to be intravenously injected to the treating group.
The pharmaceutical composition was dissolved in 5% glucose solution or physiologic saline for injection in such that the amount of the pharmaceutical composition contained in the glucose solution or physiologic saline is 5 ml per one kg of weight of the mouse to be injected so as to prepare an injection liquid. When the proliferation of tumor in the control group reached exponential growth phase and the size of the tumor became detectable by touch with hand, i.e., generally three weeks after the transplantation, the experiment was stopped. Then the tumor of each mouse was cut off and the weight of the resulting tumor was measured by use of chemical balance. Regarding each group, tumor inhibition percentage between the treating group and control group was calculated.

[5] = tested on: LOX, a human melanoma cell line; assay: Nude mice bearing human melanoma LOX (survival); format: in vivo, human (in male athymic Swiss nu/nu mouse); details: i.p.
Protocol: Nude Mice Bearing Human Melanoma as a Model System
LOX, a human melanoma cell line, grown subcutaneously in nude mice was excised, trypsinized to yield a single cell suspension using a metal grid with a […]. Red blood cells were lysed by incubation with 0.17 molar ammonium chloride at 4° C. for 20 minutes. Five million viable trypan blue negative cells made up in 0.1 ml of Dulbecco modified Eagles' medium (DME) were injected into the peritoneal cavity of a male athymic Swiss nu/nu mouse. The control group and each treatment group consisted of 5 to 10 mice. Treatment was commenced the following day by intraperitoneal injection.
Ten control mice received 0.25 ml of 2% dextrose on those days the treated groups were injected with the compounds of this invention. The compounds of the General Formulas (I) to (II) used in this invention which were tested are listed in Table 6 below and the results obtained are shown in Table 6 of the accompanying drawings. T/C is the ratio, expressed as a percentage of the mean survival age of the treated group to the mean survival age of the untreated control group.

SMILES | Solubility 1 mg/mL [1] | Solubility 10 mg/mL [2] | Solubility 10 mg/mL [3] | further results
CCn1c(=Cc2sc3ccccc3[n+]2CCOCCOCCOC)sc(=C2Sc3ccc4ccccc4c3N2C)c1=O [Compound 1-3] | soluble | soluble | soluble | Tumor Inhibition Ratio ([4]; 5 mg/kg day 1, 10 mg/kg days 3, 7, 13 mg/kg days 9, 13, 15, 17): 51.1%; T/C (mean survival age of treated group to untreated control group) ([5]; 7.5 mg/kg days 1, 2, 5, 7, 9, 13, 15, 20): 153%
CCn1c(=Cc2sc3ccccc3[n+]2CCOCCOCCOCCOC)sc(=C2Sc3ccc4ccccc4c3N2C)c1=O [Compound 1-4] | soluble | soluble | soluble | Tumor Inhibition Ratio ([4]; 5 mg/kg days 1, 3, 7.5 mg/kg day 6, 10 mg/kg days 8, 10, 12.5 mg/kg days 13, 15, 17): 71.5%
CCn1c(=Cc2sc3c4ccccc4ccc3[n+]2CCOCCOCCOC)sc(=C2Sc3ccc4ccccc4c3N2C)c1=O [Compound 1-5] | soluble | suspension |  | 
CCn1c(=Cc2sc3ccccc3[n+]2CC)sc(=C2Sc3c(ccc4ccccc34)N2CCOCCOCCOC)c1=O [Compound 1-6, 3-ethyl-2-{[3-ethyl-5-(3-methoxyethoxyethoxyethylnaphtho[2,1-d]thiazolin-2-ylidene)]-4-oxothiazolidin-2-ylidenemethyl}benzothiazolium=chloride] | soluble | soluble |  | 
CC[n+]1c(C=c2sc(=C3Sc4c(ccc5ccccc45)N3C)c(=O)n2CCOCCOCCOC)sc2ccccc21 [Compound 1-7, 3-ethyl-2-{[3-methoxyethoxyethoxyethyl-5-(3-methylnaphtho[2,1-d]thiazolin-2-ylidene)]-4-oxothiazolidin-2-ylidenemethyl}benzothiazolium=chloride] | soluble | soluble | soluble | Tumor Inhibition Ratio ([4]; 5 mg/kg days 1, 17, 7.5 mg/kg day 3, 10 mg/kg days 6, 8, 10, 13): 83.0%; T/C (mean survival age of treated group to untreated control group) ([5]; 5 mg/kg days 1, 9, 15, 10 mg/kg days 2, 5, 7, 13): 129%
CCn1c(=Cc2sc3ccccc3[n+]2CCOCCOCCOC)sc(=C2Sc3c(ccc4ccccc34)N2C)c1=O [Compound 1-8] | soluble | suspension | soluble | 
CCn1c(=Cc2sc3ccccc3[n+]2CCC2OCCCO2)sc(=C2Sc3ccc4ccccc4c3N2C)c1=O [Compound 1-9, 3-(1,3-dioxane-2-ethyl)-2-{[3-ethyl-5-(3-methylnaphtho[1,2-d]thiazolin-2-ylidene)]-4-oxothiazolidin-2-ylidenemethyl}benzothiazolium=chloride] | soluble | suspension |  | Tumor Inhibition Ratio ([4]; 3 mg/kg days 1, 4, 7, 1 mg/kg days 9, 11, 13, 18): 65.6%; T/C (mean survival age of treated group to untreated control group) ([5]; 5 mg/kg days 1, 13, 15, 10 mg/kg days 2, 5, 7, 15 mg/kg day 9): 153%
CCn1c(=Cc2sc3ccccc3[n+]2CCOCCOCCOC)sc(=C2Oc3ccc4ccccc4c3N2C)c1=O [Compound 1-10] | soluble | soluble | soluble | 
CCn1c(=Cc2sc3c4ccccc4ccc3[n+]2CCOCCOCCOC)sc(=C2Sc3ccccc3N2C)c1=O [Compound 1-11, 3-methoxyethoxyethoxyethyl-2-{[3-ethyl-5-(3-methylbenzothiazolin-2-ylidene)]-4-oxothiazolidin-2-ylidenemethyl}naphtho[2,1-d]thiazolium=chloride] | soluble | soluble | soluble | Tumor Inhibition Ratio ([4]; 8 mg/kg day 1, 10 mg/kg days 3, 6, 8, 10, 15, 17): 67.9%; T/C (mean survival age of treated group to untreated control group) ([5]; 5 mg/kg days 1, 15, 10 mg/kg days 2, 5, 7, 13, 15 mg/kg day 9): 129%
CCn1c(=Cc2sc3ccccc3[n+]2CCOCCOCCOC)sc(=C2Sc3ccccc3N2C)c1=O [Compound 1-12] | soluble | soluble | soluble | T/C (mean survival age of treated group to untreated control group) ([5]; 5 mg/kg day 1, 10 mg/kg days 2, 5, 7, 9, 13, 15): 124%
CCn1c(=Cc2sc3ccccc3[n+]2CCOCCOCCOC)sc(=C2Sc3ccc(OC)cc3N2C)c1=O [Compound 1-13] | soluble | soluble | soluble | Tumor Inhibition Ratio ([4]; 20 mg/kg days 1, 3, 7, 11, 16, 18, 25 mg/kg day 9): 45.2%; T/C (mean survival age of treated group to untreated control group) ([5]; 5 mg/kg day 1, 7.5 mg/kg days 2, 5, 10 mg/kg days 7, 9, 13, 15): 124%
CCn1c(=Cc2sc3c4ccccc4ccc3[n+]2CCOCCOCCOC)sc(=C2SCCN2C)c1=O [Compound 1-14] | soluble | soluble | soluble | 
CCN1C(=O)C(=C2Sc3ccc4ccccc4c3N2C)SC1=Nc1scc[n+]1CCOCCOCCOC [Compound 1-15] | soluble | soluble | soluble | Tumor Inhibition Ratio ([4]; 10 mg/kg days 1, 3, 6, 8, 10, 13, 15, 20): 60.0%
CCn1c(=Cc2sc3c4ccccc4ccc3[n+]2CCOCCOCCOC)sc(=CC=C2Sc3ccc4ccccc4c3N2C)c1=O [Compound 1-16] | soluble | suspension | soluble | 
CCn1c(=Cc2sc3ccccc3[n+]2CC)sc(=C2Sc3ccc4ccccc4c3N2C)c1=O [Compound S-1, reference compound] | suspension | suspension | suspension | dissolution in the above-described solubility tests [1]: not dissolved
CCn1c(=Cc2sc3ccccc3[n+]2CCOC)sc(=C2Sc3ccc4ccccc4c3N2C)c1=O [Compound S-2, reference compound] | suspension | suspension | suspension | dissolution in the above-described solubility tests [1]: not dissolved
CCn1c(=Cc2sc3ccccc3[n+]2CCOCCO)sc(=C2Sc3ccc4ccccc4c3N2C)c1=O [Compound S-3, reference compound] | suspension | suspension | suspension | dissolution in the above-described solubility tests [1]: not dissolved
